The target in the experiment is T1, human orexin-2 (hOX2) receptor (Homo sapiens, UniProt O43614).
T1 construct: expressed in transfected cells
T1 sequence (O43614 1-444): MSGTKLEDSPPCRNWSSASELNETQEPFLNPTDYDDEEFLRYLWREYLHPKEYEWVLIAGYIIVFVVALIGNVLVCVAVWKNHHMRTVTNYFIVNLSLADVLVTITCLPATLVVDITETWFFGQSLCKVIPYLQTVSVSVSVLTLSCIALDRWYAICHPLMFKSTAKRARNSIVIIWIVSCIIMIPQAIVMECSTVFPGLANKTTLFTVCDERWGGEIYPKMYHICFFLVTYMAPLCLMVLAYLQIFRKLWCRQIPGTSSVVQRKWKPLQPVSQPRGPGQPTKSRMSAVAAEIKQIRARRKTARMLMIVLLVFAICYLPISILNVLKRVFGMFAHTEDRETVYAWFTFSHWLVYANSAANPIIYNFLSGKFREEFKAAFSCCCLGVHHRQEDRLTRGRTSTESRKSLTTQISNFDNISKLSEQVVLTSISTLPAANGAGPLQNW
The experiment can be described thus: Intracellular Ca2+ mobilization assay (FLIPR), CHO(dHFr-) cells expressing hOX2, orexin-A as agonist. Type of experiment: cell-based. To be noted: antagonist Kb=IC50/(1+[A]/EC50); orexin-A at EC80; CHO(dHFr-)-OX2R cells; antagonist applied 25 min before agonist. As for the experimental part:
Intracellular Ca^2+ Mobilization Assay
The Chinese Hamster Ovary (dHFr-) mutant cell line stably expressing human orexin-1 (hOX1) or human orexin-2 (hOX2) receptors were maintained in Dulbecco's Modified Eagle Medium (1×) with GlutaMax™1, 4500 mg/L D-Glucose and Sodium Pyruvate (Catalog No. 31966-021, Invitrogen, Carlsbad, Calif.), 5% dialyzed fetal calf serum (Catalog No. 26400-044), 100 μg/ml penicillin and 100 μg/ml streptomycin. The cells were seeded at 5×10^4 cells/well in the poly-D-lysine treated, 96-well, black/clear-bottomed plates (Catalog No. BD356640, BD Biosciences, Palo Alto, Calif.). 24 h later, the cells were loaded for 1 h at 37° C. with 4 μM Flou-4 acetoxymethyl ester (Catalog No. F-14202, Molecular Probes, Eugene, Oreg.) in FLIPR buffer (1×HBSS, 20 mM HEPES, 2.5 mM Probenecid). Hanks' Balanced Salt Solution (HBSS) (10×) (catalog No. 14065-049) and HEPES (1M) (catalog No. 15630-056) were purchased from Invitrogen, Carlsbad, Calif. Probenecid (250 mM) (catalog No. P8761) was from Sigma, Buchs, Switzerland. The cells were washed five times with FLIPR buffer to remove excess dye and intracellular calcium mobilization, [Ca^2−]i were measured using a Fluorometric Imaging Plate Reader (FLIPR-96, Molecular Devices, Menlo Park, Calif.) as described previously (Malherbe et al., Mol. Pharmacol., 64, 823-832, 2003). Orexin A (catalog No. 1455, Toris Cookson Ltd, Bristol, UK) was used as agonist. Orexin A ([…] stock solution in DMSO) was diluted in FLIPR buffer+0.1% BSA. The EC50 and EC80 values of orexin-A were measured daily from standard agonist concentration-response curves in CHO(dHFr-)-OX1R and -OX2R cell lines. All compounds were dissolved in 100% DMSO. Inhibition curves were determined by addition of 11 concentrations (0.0001-10 μM) of inhibitory compounds and using EC80 value of orexin-A as agonist (a concentration which gave 80% of max agonist response, determined daily). The antagonists were applied 25 min (incubation at 37° C.) before the application of the agonist. Responses were measured as peak increase in fluorescence minus basal, normalized to the maximal stimulatory effect induced by EC80 value of orexin-A or orexin-B. Inhibition curves were fitted according to the Hill equation: y=100/(1+(x/IC50)^nH), where nH=slope factor using Excel-fit 4 software (Microsoft).
Kb values were calculated according to the following equation Kb=IC50/(1+[A]/EC50) where A is the concentration of agonist added which is very close to agonist EC80 value, and IC50 and EC50 values were derived from the antagonist inhibition and orexin-A or B agonist curves, respectively.
(In general: A change in cytosolic calcium serves as a functional read-out for many receptors and channels.)

The values below come from patent US7897627B2, “Heteroaryl derivatives as orexin receptor antagonists” (Hoffmann-La Roche Inc., priority 2007, dated 2011).

In turn, `COc1cccc(OC)c1C(=O)N1CCC(Nc2nc3ccc(Cl)cc3o2)C1` (stereo not drawn) [Example 1, [3-(6-Chloro-benzooxazol-2-ylamino)-pyrrolidin-1-yl]-(2,6-dimethoxy-phenyl)-methanone] displayed a Kb of 0.0279 µM. Regarding `COc1cccc(OC)c1C(=O)N1CC[C@@H](Nc2nc3ccc(Cl)cc3o2)C1` [Example 5, [(R)-3-(6-Chloro-benzooxazol-2-ylamino)-pyrrolidin-1-yl]-(2,6-dimethoxy-phenyl)-methanone], the Kb stood at 0.0242 µM. In turn, `COc1cccc(OC)c1C(=O)N1CCC(Nc2cnc3ccccc3n2)C1` (stereo not drawn) [Example 6, (2,6-Dimethoxy-phenyl)-[3-(quinoxalin-2-ylamino)-pyrrolidin-1-yl]-methanone] showed a Kb of 0.0104 µM. For `COc1cccc(OC)c1C(=O)N1CCC(Nc2nc3ccc(Cl)cc3s2)C1` (stereo not drawn) [Example 7, [3-(6-Chloro-benzothiazol-2-ylamino)-pyrrolidin-1-yl]-(2,6-dimethoxy-phenyl)-methanone] the value was 0.0228 µM; for `COc1cccc(OC)c1C(=O)N1CC[C@@H](Nc2cnc3ccccc3n2)C1` [Example 24, (2,6-Dimethoxy-phenyl)-[(R)-3-(quinoxalin-2-ylamino)-pyrrolidin-1-yl]-methanone], 0.0415 µM. As to `COc1cccc(OC)c1C(=O)N1CC[C@@H](Nc2nc3ccc(Cl)cc3s2)C1` [Example 25, [(R)-3-(6-Chloro-benzothiazol-2-ylamino)-pyrrolidin-1-yl]-(2,6-dimethoxy-phenyl)-methanone], the antagonist dissociation constant (Kb) amounted to 0.0163 µM. For `O=C(c1ccccc1-n1cccc1)N1CC[C@@H](Nc2nc3ccc(Cl)cc3o2)C1` [Example 28, [(R)-3-(6-Chloro-benzooxazol-2-ylamino)-pyrrolidin-1-yl]-(2-pyrrol-1-yl-phenyl)-methanone] the value was 0.0096 µM. For `O=C(c1c(Cl)cccc1Cl)N1CC[C@@H](Nc2nc3ccc(Cl)cc3o2)C1` [Example 33, [(R)-3-(6-Chloro-benzooxazol-2-ylamino)-pyrrolidin-1-yl]-(2,6-dichloro-phenyl)-methanone] the value was 0.0354 µM; for `Cc1cccc(Cl)c1C(=O)N1CC[C@@H](Nc2nc3ccc(Cl)cc3o2)C1` [Example 35, [(R)-3-(6-Chloro-benzooxazol-2-ylamino)-pyrrolidin-1-yl]-(2-chloro-6-methyl-phenyl)-methanone], 0.045 µM; for `COc1cccc(OC)c1C(=O)N1CC[C@@H](Nc2cnc3cc(Cl)ccc3n2)C1` [Example 41, [(R)-3-(6-Chloro-quinoxalin-2-ylamino)-pyrrolidin-1-yl]-(2,6-dimethoxy-phenyl)-methanone], 0.0302 µM. Next, `COc1cccc(OC)c1C(=O)N1CC[C@@H](Nc2nc3c(Cl)cccc3s2)C1` [Example 43, [(R)-3-(4-Chloro-benzothiazol-2-ylamino)-pyrrolidin-1-yl]-(2,6-dimethoxy-phenyl)-methanone]: 0.0015 µM. In the case of `CCc1ccccc1C(=O)N1CC[C@@H](Nc2nc3ccc(Cl)cc3o2)C1` [Example 47, [(R)-3-(6-Chloro-benzooxazol-2-ylamino)-pyrrolidin-1-yl]-(2-ethyl-phenyl)-methanone], the Kb came to 0.0377 µM.

`CCOc1ccccc1C(=O)N1CC[C@@H](Nc2nc3ccc(Cl)cc3o2)C1` [Example 52, [(R)-3-(6-Chloro-benzooxazol-2-ylamino)-pyrrolidin-1-yl]-(2-ethoxy-phenyl)-methanone]: the Kb was 0.0249 µM. Molecule `CSc1ccccc1C(=O)N1CC[C@@H](Nc2nc3ccc(Cl)cc3o2)C1` [Example 53, [(R)-3-(6-Chloro-benzooxazol-2-ylamino)-pyrrolidin-1-yl]-(2-methylsulfanyl-phenyl)-methanone] gave a Kb of 0.0299 µM. Consider `O=C(c1ccccc1OC(F)F)N1CC[C@@H](Nc2nc3ccc(Cl)cc3o2)C1` [Example 56, [(R)-3-(6-Chloro-benzooxazol-2-ylamino)-pyrrolidin-1-yl]-(2-difluoromethoxy-phenyl)-methanone], for which the Kb is 0.047 µM. For `O=C(c1ccccc1-c1ccco1)N1CC[C@@H](Nc2nc3ccc(Cl)cc3o2)C1` [Example 57, [(R)-3-(6-Chloro-benzooxazol-2-ylamino)-pyrrolidin-1-yl]-(2-furan-2-yl-phenyl)-methanone] the value was 0.0025 µM; for `O=C(c1cnoc1-c1ccccc1)N1CC[C@@H](Nc2nc3ccc(Cl)cc3o2)C1` [Example 61, [(R)-3-(6-Chloro-benzooxazol-2-ylamino)-pyrrolidin-1-yl]-(5-phenyl-isoxazol-4-yl)-methanone], 0.0054 µM; for `O=C(c1ccccc1-c1ncn[nH]1)N1CC[C@@H](Nc2nc3ccc(Cl)cc3o2)C1` [Example 62, [(R)-3-(6-Chloro-benzooxazol-2-ylamino)-pyrrolidin-1-yl]-[2-(2H-[1,2,4]triazol-3-yl)-phenyl]-methanone], 0.014 µM. `O=C(c1ccccc1C(F)(F)F)N1CC[C@@H](Nc2nc3ccc(Cl)cc3o2)C1` [Example 63, [(R)-3-(6-Chloro-benzooxazol-2-ylamino)-pyrrolidin-1-yl]-(2-trifluoromethyl-phenyl)-methanone] showed a Kb of 0.0219 µM. Consider `O=C(c1ccccc1-c1cccnc1)N1CC[C@@H](Nc2nc3ccc(Cl)cc3o2)C1` [Example 65, [(R)-3-(6-Chloro-benzooxazol-2-ylamino)-pyrrolidin-1-yl]-(2-pyridin-3-yl-phenyl)-methanone], for which the Kb was 0.0272 µM. Next, `Cc1onc(-c2ccccc2)c1C(=O)N1CC[C@@H](Nc2nc3ccc(Cl)cc3o2)C1` [Example 67, [(R)-3-(6-Chloro-benzooxazol-2-ylamino)-pyrrolidin-1-yl]-(5-methyl-3-phenyl-isoxazol-4-yl)-methanone]: 0.0051 µM. `Cc1ccc(C(F)(F)F)c(C(=O)N2CC[C@@H](Nc3nc4ccc(Cl)cc4o3)C2)c1` [Example 68, [(R)-3-(6-Chloro-benzooxazol-2-ylamino)-pyrrolidin-1-yl]-(5-methyl-2-trifluoromethyl-phenyl)-methanone] displayed a Kb of 0.0018 µM.

For `Cc1noc(-c2ccccc2C(=O)N2CC[C@@H](Nc3nc4ccc(Cl)cc4o3)C2)n1` [Example 69, [(R)-3-(6-Chloro-benzooxazol-2-ylamino)-pyrrolidin-1-yl]-[2-(3-methyl-[1,2,4]oxadiazol-5-yl)-phenyl]-methanone], the Kb amounted to 0.0155 µM.

In turn, `O=C(c1ccccc1-c1cccs1)N1CC[C@@H](Nc2nc3ccc(Cl)cc3o2)C1` [Example 70, [(R)-3-(6-Chloro-benzooxazol-2-ylamino)-pyrrolidin-1-yl]-(2-thiophen-2-yl-phenyl)-methanone] registered a Kb of 0.0024 µM. The molecule `O=C(c1ccccc1OC(F)(F)F)N1CC[C@@H](Nc2nc3ccc(Cl)cc3o2)C1` [Example 71, [(R)-3-(6-Chloro-benzooxazol-2-ylamino)-pyrrolidin-1-yl]-(2-trifluoromethoxy-phenyl)-methanone] yielded an antagonist dissociation constant (Kb) of 0.0097 µM. For the molecule `O=C(c1c(F)cccc1C(F)(F)F)N1CC[C@@H](Nc2nc3ccc(Cl)cc3o2)C1` [Example 72, [(R)-3-(6-Chloro-benzooxazol-2-ylamino)-pyrrolidin-1-yl]-(2-fluoro-6-trifluoromethyl-phenyl)-methanone], the Kb is 0.0298 µM. In turn, `CCOc1cccc(OCC)c1C(=O)N1CC[C@@H](Nc2nc3ccc(Cl)cc3o2)C1` [Example 73, [(R)-3-(6-Chloro-benzooxazol-2-ylamino)-pyrrolidin-1-yl]-(2,6-diethoxy-phenyl)-methanone] had a Kb of 0.0012 µM.

Usually Kb stands for the affinity of an antagonist, worked out from how it opposes an agonist.
